We go through 4 compounds from US20260234115A1, “LIPID COMPOUNDS, COMPOSITIONS, AND USES THEREOF” (Liberate Bio, Inc., priority 2023, published 2026).

The test deals with mouse organs. Kind of test: In vivo activity screening in mice: organ mean total flux (p/s) of luciferase activity after injection of F2 LNP pools (Table 6, FIG. 7A-7C). Conditions: luciferase mRNA. Summed up:
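Luciferase output per organ is reported as mean total flux (p/s) from IVIS regions of interest. Organs were collected from perfused C57BL/6J mice and imaged 10-15 min after s.c. D-luciferin, 4-6 h after i.v. dosing. Dosing was 0.25-3 mg/kg luciferase mRNA in F2 LNP pools.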

Marks after values point to notes of the source that are not given here.

As to `CCCCC/C=C\CCOC(=O)CCCCC(=O)OCC(COC(=O)CCCCC(=O)OCC/C=C\CCCCC)(COC(=O)CCC(CCCCCC)OC(=O)NCCN1CCCC1)COC(=O)[C@]12CC[C@H](CC1)C2` (some centres unmarked) [Compound 99, O6-[2-[[6-[(Z)-non-3-enoxy]-6-oxo-hexanoyl]oxymethyl]-2-(norbornane-1-carbonyloxymethyl)-3-[4-(2-pyrrolidin-1-ylethylcarbamoyloxy)decanoyloxy]propyl]O1-[(Z)-non-3-enyl]hexanedioate], for the setting “Mouse 12, dose 0.5 mg/kg”, the “Organ Mean Total Flux Femur” value is given as 7.2 p/s (×10^6), the “Organ Mean Total Flux Heart” value is on record as 0.4 p/s (×10^6), the “Organ Mean Total Flux Kidney” value is recorded as 1.2 p/s (×10^6) and the “Organ Mean Total Flux Liver” value is 177.0 p/s (×10^6). Besides, for the setting “Mouse 12, dose 0.5 mg/kg”, the “Organ Mean Total Flux Lung” value is listed as 31.4 p/s (×10^6), the “Organ Mean Total Flux Muscle” value is 6.5 p/s (×10^6), the “Organ Mean Total Flux Pancreas” value is reported as 4.3 p/s (×10^6) and the “Organ Mean Total Flux Spleen” value is 47.5 p/s (×10^6).
On to `CCCCC/C=C\CCOC(=O)CCCCC(=O)OCC(COC(=O)CCCCC(=O)OCC/C=C\CCCCC)(COC(=O)CCC(CCCCCC)OC(=O)NCCN1CCCC1)COC(=O)C1CC2(C1)CC(F)(F)C2` (centres unmarked) [Compound 100, O6-[2-[(2,2-difluorospiro[3.3]heptane-6-carbonyl)oxymethyl]-2-[[6-[(Z)-non-3-enoxy]-6-oxo-hexanoyl]oxymethyl]-3-[4-(2-pyrrolidin-1-ylethylcarbamoyloxy)decanoyloxy]propyl]O1-[(Z)-non-3-enyl]hexanedioate], for which, where the note is “Mouse 12, dose 0.5 mg/kg”, the “Organ Mean Total Flux Femur” value was 13.8 p/s (×10^6), the “Organ Mean Total Flux Heart” value is recorded as 0.7 p/s (×10^6), the “Organ Mean Total Flux Kidney” value is on record as 2.3 p/s (×10^6) and the “Organ Mean Total Flux Liver” value was 273.0 p/s (×10^6). In addition, under “Mouse 12, dose 0.5 mg/kg”, the “Organ Mean Total Flux Lung” value was 37.8 p/s (×10^6), the “Organ Mean Total Flux Muscle” value was 4.0 p/s (×10^6), the “Organ Mean Total Flux Pancreas” value is recorded as 25.2 p/s (×10^6) and the “Organ Mean Total Flux Spleen” value is given as 163.7 p/s (×10^6).
For the compound `CCCCC/C=C\CCOC(=O)CCCCC(=O)OCC(COC(=O)CCCCC(=O)OCC/C=C\CCCCC)(COC(=O)CCC(CCCCCC)OC(=O)NCCN1CCCC1)COC(=O)C12CCCC1C2` (centres unmarked) [Compound 101, O6-[2-(bicyclo[3.1.0]hexane-1-carbonyloxymethyl)-2-[[6-[(Z)-non-3-enoxy]-6-oxo-hexanoyl]oxymethyl]-3-[4-(2-pyrrolidin-1-ylethylcarbamoyloxy)decanoyloxy]propyl]O1-[(Z)-non-3-enyl]hexanedioate], under “Mouse 12, dose 0.5 mg/kg”, the “Organ Mean Total Flux Femur” value is 9.7 p/s (×10^6), the “Organ Mean Total Flux Heart” value was 0.8 p/s (×10^6), the “Organ Mean Total Flux Kidney” value is 0.9 p/s (×10^6) and the “Organ Mean Total Flux Liver” value is 306.7 p/s (×10^6). Besides, under “Mouse 12, dose 0.5 mg/kg”, the “Organ Mean Total Flux Lung” value was 26.5 p/s (×10^6), the “Organ Mean Total Flux Muscle” value is 5.2 p/s (×10^6), the “Organ Mean Total Flux Pancreas” value is 14.3 p/s (×10^6) and the “Organ Mean Total Flux Spleen” value is 53.2 p/s (×10^6).
Regarding `CCCCC/C=C\CCOC(=O)CCCCC(=O)OCC(COC(=O)CCCCC(=O)OCC/C=C\CCCCC)(COC(=O)CCC(CCCCCC)OC(=O)NCCN1CCCC1)COC(=O)C1CCC2C(C1)C2(F)F` (centres unmarked) [Compound 103, O6-[2-[(7,7-difluoronorcarane-3-carbonyl)oxymethyl]-2-[[6-[(Z)-non-3-enoxy]-6-oxo-hexanoyl]oxymethyl]-3-[4-(2-pyrrolidin-1ylethylcarbamoyloxy)decanoyloxy]propyl]O1-[(Z)-non-3-enyl]hexanedioate], where the note is “Mouse 13, dose 0.5 mg/kg”, the “Organ Mean Total Flux Femur” value is recorded as 26.0 p/s (×10^6), the “Organ Mean Total Flux Heart” value is 0.8 p/s (×10^6), the “Organ Mean Total Flux Kidney” value is 2.4 p/s (×10^6) and the “Organ Mean Total Flux Liver” value is reported as 444.3 p/s (×10^6). For the setting “Mouse 13, dose 0.5 mg/kg”, the “Organ Mean Total Flux Lung” value was 16.0 p/s (×10^6), the “Organ Mean Total Flux Muscle” value is reported as 4.5 p/s (×10^6), the “Organ Mean Total Flux Pancreas” value is recorded as 13.5 p/s (×10^6) and the “Organ Mean Total Flux Spleen” value is reported as 161.3 p/s (×10^6).
